PubChem BioAssay (NCI)
Several values for one entry are separate records, joined by “and”; a condition that tells them apart may be missing. Equal entries are not always repeated.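 Values below derive from 48-hour exposures of cells grown in 96-well plates, with endpoints linearly interpolated between the two concentrations bracketing the appropriate inhibition level. Abbreviation: GI50, concentration required for 50% inhibition of growth. TGI: concentration producing complete growth inhibition.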

Experiments:
Assay in all cases: NCI anticancer screen, dose series, 48 h
786-0 renal = system: 786-0 renal
CCRF-CEM leukemia = system: CCRF-CEM leukemia
HOP-92 NSCLC = system: HOP-92 NSCLC
KM12 colon = system: KM12 colon
M14 melanoma = system: M14 melanoma
NCI-H460 lung = system: NCI-H460 lung
OVCAR-4 ovarian = system: OVCAR-4 ovarian
SK-MEL-5 melanoma = system: SK-MEL-5 melanoma
TK-10 renal = system: TK-10 renal
UO-31 renal = system: UO-31 renal

Compound	GI50 (786-0 renal)	TGI (786-0 renal)	GI50 (CCRF-CEM leukemia) [µM]	TGI (CCRF-CEM leukemia) [µM]	GI50 (HOP-92 NSCLC) [µM]	TGI (HOP-92 NSCLC) [µM]	GI50 (KM12 colon) [µM]	TGI (KM12 colon)	GI50 (M14 melanoma)	TGI (M14 melanoma) [µM]	GI50 (NCI-H460 lung) [µM]	TGI (NCI-H460 lung)	GI50 (OVCAR-4 ovarian) [µM]	TGI (OVCAR-4 ovarian) [µM]	GI50 (SK-MEL-5 melanoma)	TGI (SK-MEL-5 melanoma)	GI50 (TK-10 renal) [µM]	TGI (TK-10 renal) [µM]	GI50 (UO-31 renal) [µM]	TGI (UO-31 renal)
CCCCCCCCCCN=C(c1ccc(N(C)C)cc1)c1ccc(N(C)C)cc1	3.61 µM	36.8 µM	1.78	> 77.3	1.92	26.5	0.414	> 75.8 µM	0.328 µM	26.4	0.437	24.5 µM	3.29	> 83.6	0.67 µM	18.4 µM	3.81	49.7	2.39	33 µM
Cc1ccc2c(c1)Sc1ccc(N=NN(C)C)cc1N2C	–	> 100 µM	–	> 100	–	> 100	–	> 100 µM	–	> 100	–	> 100 µM	–	> 100	–	> 100 µM	–	> 100	–	> 100 µM
C#CCC(N)(CO)C(=O)O (stereo not drawn)	–	> 100 µM	–	–	–	> 100	–	> 100 µM	–	> 100	–	> 100 µM	–	> 100	–	> 100 µM	–	> 100	–	> 100 µM
C=CCC1[C@@H](C(C)(C)C(C(C)=O)C(=O)C(=O)OC)OC(C(C)(C)C)N1C(=O)OC (stereo partly drawn)	–	> 100 µM	–	> 100	–	> 100	–	> 100 µM	–	> 100	–	> 100 µM	–	> 100	–	> 100 µM	–	> 100	–	> 100 µM
Cc1ccccc1Nc1nc2c(s1)C(=O)c1ccccc1C2=O	–	8.47 µM	–	> 37.5	–	25.1	–	23.4 µM	–	12.1	–	25.3 µM	–	5.13	–	7.12 µM	–	38.4	–	14.4 µM
Cn1cc(-c2csc(-c3cn(C)c4ccccc34)n2)c2cnccc21	1.95 µM	3.53 µM	1.78	3.86	–	–	1	2.48 µM	1.51 µM	2.96	1.79	3.49 µM	1.46	11.1	1.69 µM	3.07 µM	2.25	4.18	1.47	3.16 µM
COC1OC(C)C(OCc2ccccc2)C(OS(=O)(=O)c2ccc(C)cc2)C1OS(=O)(=O)c1ccc(C)cc1 (stereo not drawn)	–	> 100 µM	–	> 100	–	–	–	> 100 µM	–	> 100	–	> 100 µM	–	> 100	–	> 100 µM	–	–	–	> 100 µM
CCOC(=O)C(=O)Nc1ccccc1C(F)(F)F	–	> 100 µM	–	–	–	> 100	–	> 100 µM	–	> 100	–	> 100 µM	–	> 100	–	–	–	> 100	–	> 100 µM
CNC(SC)=C1C(=O)OC(C)(C)OC1=O	–	> 100 µM	–	> 100	–	> 100	–	> 100 µM	–	> 100	–	> 100 µM	–	–	–	> 100 µM	–	> 100	–	> 100 µM
CSc1c(C)c(C)nn1-c1ccccc1	–	> 100 µM	–	> 100	–	–	–	> 100 µM	–	> 100	–	> 100 µM	–	> 100	–	> 100 µM	–	> 100	–	> 100 µM
O=c1c2c3c(sc2n2c(-c4cc(-c5ccccc5)nn4-c4ccccc4)nnc2n1Cc1ccccc1)CCCC3	> 100 µM	> 100 µM	–	–	–	–	> 100	> 100 µM	–	–	> 100	> 100 µM	> 100	> 100	> 100 µM	> 100 µM	> 100	> 100	> 100	> 100 µM
Cl[Si]1(Cl)Oc2ccccc2O[Si](Cl)(Cl)Oc2ccccc2O1	–	21.5 µM	–	10.5	–	89.6	–	> 100 µM	–	34.3	–	65.9 µM	–	24.7	–	27 µM	–	> 100	–	–
O=C1c2cccnc2-c2nc(-c3ccncc3)cc3c2c1nc1ccccc13	15 µM	39.9 µM	8.03	39.6	–	–	–	–	17.8 µM	31.6	6.29	19.5 µM	–	–	14.1 µM	36.5 µM	19.5	40.2	33.2	> 100 µM
C[C@H]1[C@H](C)CC[C@]2(C(=O)NCCNCCN)CC[C@]3(C)C(=CC[C@@H]4[C@@]5(C)CCC(=O)C(C)(C)[C@@H]5CC[C@]43C)[C@H]12	1.74 µM	3.18 µM	–	–	1.73	4.82	1.85	3.42 µM	1.79 µM	3.41	1.77	3.28 µM	1.93	4	1.8 µM	3.23 µM	1.84	3.75	1.53	2.86 µM
C=CCSc1nc2ccccc2c(=O)n1Cc1ccco1	–	> 100 µM	–	–	–	> 100	–	> 100 µM	–	> 100	–	> 100 µM	–	> 100	–	> 100 µM	–	> 100	–	> 100 µM
CCCCCCCCCCCCCCCCCCNC(=O)[C@H]1CSC(c2cccs2)N1 (stereo partly drawn)	1.13 µM	2.49 µM	0.372	2.03	2.38	14.2	0.977	1.98 µM	0.868 µM	1.66	0.754	1.69 µM	1.56	> 50	–	–	1.79	> 50	10.3	> 50 µM
Cc1cc2c(Br)cc(Br)c(O)c2nc1C(=O)c1ccccc1	–	28.6 µM	–	> 100	–	–	–	> 100 µM	–	> 60.2	–	30.7 µM	–	> 100	–	29.8 µM	–	> 100	–	> 82.1 µM

Compound	GI50 (786-0 renal)	TGI (786-0 renal)	GI50 (CCRF-CEM leukemia) [µM]	TGI (CCRF-CEM leukemia) [µM]	GI50 (HOP-92 NSCLC) [µM]	TGI (HOP-92 NSCLC) [µM]	GI50 (KM12 colon) [µM]	TGI (KM12 colon)	GI50 (M14 melanoma)	TGI (M14 melanoma) [µM]	GI50 (NCI-H460 lung) [µM]	TGI (NCI-H460 lung)	GI50 (OVCAR-4 ovarian) [µM]	TGI (OVCAR-4 ovarian) [µM]	GI50 (SK-MEL-5 melanoma)	TGI (SK-MEL-5 melanoma)	GI50 (TK-10 renal) [µM]	TGI (TK-10 renal) [µM]	GI50 (UO-31 renal) [µM]	TGI (UO-31 renal)
c1ccc(Cn2cnc3ccc(-c4nc(-c5ccc6c(c5)ncn6C5CCCCC5)cn5ccnc45)cc32)cc1	0.799 µM	> 100 µM	2.18	> 100	1.25	2.62	2.08	4.93 µM	–	–	2.3	5.66 µM	3.06	> 100	–	–	3.52	> 100	1.72	4.55 µM
CC1(Cc2ccccc2)NC(=S)NC1=O (stereo not drawn)	–	> 100 µM	–	–	–	> 100	–	> 100 µM	–	> 100	–	> 100 µM	–	–	–	–	–	> 100	–	> 100 µM
COc1cc2cnc3c4ccccc4ccc3c2cc1OC	–	> 100 µM	–	> 100	–	–	–	> 100 µM	–	> 100	–	> 100 µM	–	> 100	–	> 100 µM	–	> 100	–	> 100 µM
CC(C)c1ccccc1NC(=O)/C(Cl)=C1/Sc2ccccc2NC1=O	–	> 100 µM	–	82.8	–	> 100	–	–	–	> 100	–	> 100 µM	–	> 100	–	78.8 µM	–	> 100	–	> 100 µM
CCC1=C[C@@H]2CN(C1)Cc1c([nH]c3ccccc13)[C@@](C(=O)OC)(c1cc3c(cc1OC)N(C)[C@H]1[C@@](O)(C(=O)OC)[C@H](OC(C)=O)[C@]4(CC)[C@@H]5C[C@@H]5CN5CC[C@]31[C@@H]54)C2	< 0.005 µM and 0.0139 µM	1.58 µM and 14.2 µM	< 0.005	–	< 0.005	0.353	< 0.005	6.54 µM and 11.1 µM	< 0.005 µM and 0.0119 µM	–	< 0.005	5.05 µM and 11.6 µM	< 0.005	10.7	< 0.005 µM and 0.017 µM	0.327 µM and 1.77 µM	–	–	–	7.7 µM and 12.6 µM
CCSc1nc(N)c2cn[nH]c2n1	40.2 µM	> 100 µM	–	–	1.37	93.3	22	59.6 µM	33.8 µM	> 100	35.1	> 100 µM	32.7	89	18.5 µM	43.6 µM	7.54	34.3	49	> 100 µM
c1ccc2nc3c(cc4ccccn43)nc2c1	35.7 µM	> 100 µM	> 100	> 100	30.9	> 100	26.6	> 100 µM	> 100 µM	> 100	> 100	> 100 µM	–	–	25.8 µM	> 100 µM	8.36	55.1	6.25	> 100 µM
O=C1C2=C(c3ccccc31)C(c1ccccc1Cl)N1C(=O)CCSC1=N2 (stereo not drawn)	–	> 100 µM	–	> 100	–	> 100	–	> 100 µM	–	> 100	–	–	–	> 100	–	> 100 µM	–	> 100	–	> 100 µM
CC(=O)OC1COC(n2c(=S)n(-c3ccccc3)c(=O)c3cc(Br)ccc32)C(OC(C)=O)C1OC(C)=O (stereo not drawn)	–	> 100 µM	–	> 100	–	55.5	–	> 100 µM	–	> 100	–	> 100 µM	–	31.6	–	> 100 µM	–	–	–	> 100 µM
Cn1c2ccccc2c2c(=O)c3ccccc3[nH]c21	33.7 µM	> 100 µM	–	–	–	–	22.1	> 100 µM	–	–	32.4	> 100 µM	–	–	42.9 µM	> 100 µM	42.4	> 100	58.2	> 100 µM
O=C(c1ccc2ccccc2c1)c1c(C(F)(F)F)n([O-])c2ccc(Cl)cc2[n+]1=O	1.64 µM	3.09 µM	–	–	0.518	2.03	1.08	2.39 µM	1.64 µM	3.05	1.75	3.34 µM	1.39	2.72	1.36 µM	2.65 µM	1.81	3.35	1.29	2.55 µM
COc1cccc(/C=C2\CCC(C)(CN(C)C)C2=O)c1 (stereo not drawn)	–	> 100 µM	–	–	–	> 100	–	> 100 µM	–	> 100	–	> 100 µM	–	> 100	–	> 100 µM	–	> 100	–	> 100 µM
O=C(NC12CC3CC(CC(C3)C1)C2)C(=O)c1c[nH]c2ccc(Cl)cc12	–	34.6 µM	–	> 100	–	53.2	–	> 100 µM	–	> 100	–	> 100 µM	–	56	–	> 100 µM	–	–	–	> 100 µM
COc1ccc(CC(C)C(C)Cc2ccc(OC)c(OC)c2)cc1OC (stereo not drawn)	804 µM	> 1400 µM	–	–	235	> 1400	> 1400	> 1400 µM	> 1400 µM	> 1400	> 1400	> 1400 µM	1140	> 1400	112 µM	> 1400 µM	> 1400	> 1400	> 1400	> 1400 µM
CNC(=O)c1cc2c(Oc3ccc(NC(=O)C4(C(=O)Nc5ccc(F)cc5)CC4)cc3)ccnc2cc1OC	3.46 µM	> 100 µM	3	> 100	1.03	4.75	0.196	> 100 µM	2.45 µM	11.2	3.88	> 100 µM	3.55	> 100	2.37 µM	6.51 µM	–	–	1.78	6.25 µM
O=C1C=C(O)c2[nH]c(=O)ccc2C1=O	–	> 100 µM	–	> 100	–	> 100	–	–	–	> 100	–	> 100 µM	–	82.5	–	> 100 µM	–	> 100	–	> 100 µM
CC(=O)N[C@H](C(=O)N[C@@H](CCCNC(=N)N)C(=O)N[C@@H](CCCCN)C(=O)N[C@@H](CCCNC(=N)N)C(=O)N[C@]1(C)CCCCCC/C=C\CCC[C@@](C)(C(=O)N[C@@H](CCCNC(=N)N)C(=O)N[C@@H](CCC(=O)O)C(=O)N[C@@H](CC(C)C)C(=O)N[C@H](C(=O)N[C@@H](CCC(=O)O)C(N)=O)C(C)C)NC(=O)[C@H](CCC(N)=O)NC(=O)[C@H](CC(C)C)NC(=O)[C@H](CC(C)C)NC(=O)[C@H](CCCNC(=N)N)NC(=O)[C@H](CCCNC(=N)N)NC(=O)[C@H](CC(C)C)NC1=O)C(C)C	1.24 µM	2.91 µM	7.28	26.7	1.73	8.43	1.3	3.77 µM	2.13 µM	27.6	–	–	1.57	8.02	1.1 µM	2.62 µM	1.6	8.8	11.1	47.1 µM
